The subject of this series is rodent carcinogenicity bioassays, tumor incidence. In words: CCRIS carcinogenicity studies. The method, boiled down: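 Archive of carcinogenicity, mutagenicity, tumor promotion and tumor inhibition results drawn from journals, NCI reports and other sources, expert-reviewed; covers 1985-2011 and is no longer updated.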

For 9 compounds, carcinogen call results are on record in PubChem BioAssay AID1259411 (Chemical Carcinogenesis Research Information System (CCRIS), 2018).

Molecules are shown by their SMILES. The source made the active and inactive calls. How the calls were made is not given here.

For `Cn1c(=O)c2c(ncn2C)n(C)c1=O` (tested in a mixture with another compound), the carcinogen call runs as follows: (Species: MOUSE, Strain/Sex: B6C3F1/FEMALE, Route: ORAL, Dose: 0, 0.7, 1.4% OF DIET FOR 78 WK (STUDY DURATION: 94 WK), Dose: 0, 0.7, 1.4% OF DIET FOR 78 WK (STUDY DURATION: 94 WK)) “inactive; negative”; (Species: MOUSE, Strain/Sex: B6C3F1/MALE, Route: ORAL, Dose: 0, 0.7, 1.4% OF DIET FOR 78 WK (STUDY DURATION: 94 WK), Dose: 0, 0.7, 1.4% OF DIET FOR 78 WK (STUDY DURATION: 94 WK)) “inactive; negative”; (Species: RAT, Strain/Sex: F344/FEMALE, Route: ORAL, Dose: 0, 0.7, 1.4% OF DIET FOR 78 WK (STUDY DURATION: 113 WK), Dose: 0, 0.7, 1.4% OF DIET FOR 78 WK (STUDY DURATION: 113 WK), Tumor Site: Type of Lesion: BLADDER: TRANSITIONAL CELL CARCINOMA, KIDNEY: TUBULAR CELL ADENOCARCINOMA, TRANSITIONAL CELL PAPILLOMA) “equivocal”; (Species: RAT, Strain/Sex: F344/MALE, Route: ORAL, Dose: 0, 0.7, 1.4% OF DIET FOR 78 WK (STUDY DURATION: 113 WK), Dose: 0, 0.7, 1.4% OF DIET FOR 78 WK (STUDY DURATION: 113 WK)) “inactive; negative”.
Consider `Oc1c(Cl)cc(Cl)cc1Cl`, for which the carcinogen call runs as follows: (Species: MOUSE, Strain/Sex: B6C3F1/FEMALE, Route: ORAL, Dose: 0, 5214, 10428 PPM IN DIET, Dose: 0, 5214, 10428 PPM IN DIET, Tumor Site: Type of Lesion: LIVER: HEPATOCELLULAR CARCINOMA OR ADENOMA) “active; positive”; (Species: MOUSE, Strain/Sex: B6C3F1/MALE, Route: ORAL, Dose: 0, 5000, 10000 PPM IN DIET, Dose: 0, 5000, 10000 PPM IN DIET, Tumor Site: Type of Lesion: LIVER: HEPATOCELLULAR CARCINOMA OR ADENOMA) “active; positive”; (Species: RAT, Strain/Sex: F344/FEMALE, Route: ORAL, Dose: 0, 5000, 10000 PPM IN DIET, Dose: 0, 5000, 10000 PPM IN DIET) “inactive; negative”; (Species: RAT, Strain/Sex: F344/MALE, Route: ORAL, Dose: 0, 5000, 10000 PPM IN DIET, Dose: 0, 5000, 10000 PPM IN DIET, Tumor Site: Type of Lesion: HEMATOPOIETIC SYSTEM (LEUKEMIA): MONOCYTIC LEUKEMIA, LYMPHATIC SYSTEM: LYMPHOMA) “active; positive”.
For `Cc1cc(-c2ccccc2C)ccc1NO`, the carcinogen call is “active; positive” (Species: RAT, Strain/Sex: ACI/SEG/MALE, Route: INTRAPERITONEAL, Dose: 0, 50 UMOL/KG BW 2X/WK FOR 10 WK BEGINNING AT 3 D OF AGE (STUDY DURATION: 68 WK), Tumor Site: Type of Lesion: COLON: CARCINOMA) and “active; positive” (Species: RAT, Strain/Sex: F344/MALE, Route: INTRAPERITONEAL, Dose: 0, 5, 10, 20 MG/KG 1/2 WK FOR 20 WK (STUDY DURATION: 60 WK), Dose: 0, 5, 10, 20 MG/KG 1/2 WK FOR 20 WK (STUDY DURATION: 60 WK), Tumor Site: Type of Lesion: PROSTATE: CARCINOMA, PERITONEUM: TUMOR, COLON: TUMOR, Tumor Site: Type of Lesion: PROSTATE: CARCINOMA, PERITONEUM: TUMOR, COLON: TUMOR).
`OC[P+](CO)(CO)CO`: the carcinogen call was “inactive; negative” (Species: MOUSE, Strain/Sex: B6C3F1/FEMALE, Route: GAVAGE, Dose: 0, 5, 10 MG/KG IN DISTILLED WATER 5 D/WK FOR 103 WK, Dose: 0, 5, 10 MG/KG IN DISTILLED WATER 5 D/WK FOR 103 WK); “inactive; negative” (Species: MOUSE, Strain/Sex: B6C3F1/FEMALE, Route: GAVAGE, Dose: 0, 15, 30 MG/KG IN DISTILLED WATER 5 D/WK FOR 103 WK, Dose: 0, 15, 30 MG/KG IN DISTILLED WATER 5 D/WK FOR 103 WK); “inactive; negative” (Species: MOUSE, Strain/Sex: B6C3F1/MALE, Route: GAVAGE, Dose: 0, 5, 10 MG/KG IN DISTILLED WATER 5 D/WK FOR 103 WK, Dose: 0, 5, 10 MG/KG IN DISTILLED WATER 5 D/WK FOR 103 WK); “inactive; negative” (Species: MOUSE, Strain/Sex: B6C3F1/MALE, Route: GAVAGE, Dose: 0, 7.5, 15 MG/KG IN DISTILLED WATER 5 D/WK FOR 103 WK, Dose: 0, 7.5, 15 MG/KG IN DISTILLED WATER 5 D/WK FOR 103 WK); “inactive; negative” (Species: RAT, Strain/Sex: F344/FEMALE, Route: GAVAGE, Dose: 0, 3.75, 7.5 MG/KG IN DISTILLED WATER 5 D/WK FOR 103 WK, Dose: 0, 3.75, 7.5 MG/KG IN DISTILLED WATER 5 D/WK FOR 103 WK); “inactive; negative” (Species: RAT, Strain/Sex: F344/FEMALE, Route: GAVAGE, Dose: 0, 5, 10 MG/KG IN DISTILLED WATER 5 D/WK FOR 104 WK, Dose: 0, 5, 10 MG/KG IN DISTILLED WATER 5 D/WK FOR 104 WK). Besides, the carcinogen call runs as follows: (Species: RAT, Strain/Sex: F344/MALE, Route: GAVAGE, Dose: 0, 3.75, 7.5 MG/KG IN DISTILLED WATER 5 D/WK FOR 103 WK, Dose: 0, 3.75, 7.5 MG/KG IN DISTILLED WATER 5 D/WK FOR 103 WK) “inactive; negative”; (Species: RAT, Strain/Sex: F344/MALE, Route: GAVAGE, Dose: 0, 5, 10 MG/KG IN DISTILLED WATER 5 D/WK FOR 104 WK, Dose: 0, 5, 10 MG/KG IN DISTILLED WATER 5 D/WK FOR 104 WK) “inactive; negative”.
As to `c1ccc2cc3c4ccccc4c4ccccc4c3cc2c1`, the carcinogen call (Species: MOUSE, Strain/Sex: B6C3F1/MALE, Route: INTRAPERITONEAL, Dose: 0, 400 NMOL IN 35 µL DMSO ON DAYS 1 (1/7 TOTAL DOSE), 8 (2/7 TOTAL DOSE), AND 15 (4/7 TOTAL DOSE) AFTER BIRTH (STUDY DUR) is “inactive; negative”.
Consider `c1ccc2c(c1)ccc1cc3c4c(ccc3cc12)CCCC4`, for which, under “Species: MOUSE, Strain/Sex: SWISS/FEMALE, Route: DERMAL, Dose: 0, 32 UG AS 0.2% SOLUTION IN ACETONE APPLIED TO INTERSCAPULAR REGION 2/WK FOR 50 WK (STUDY DURATION: 60 WK), Tumor Site: Type of Lesion: SKIN: CARCINOMA”, the carcinogen call is “active; positive”.
Consider `O[C@@H]1[C@@H]2O[C@@H]2c2c(cc3ccc4cccc5ccc2c3c45)[C@H]1O`, for which the carcinogen call by setting is: (Species: MOUSE, Strain/Sex: ICR/FEMALE, Route: INTRAPERITONEAL, Dose: 0, 25 NMOL (TOTAL DOSE) ADMINISTERED IN DOSES OF 1/7, 2/7, AND 4/7 ON DAYS 1, 7, AND 15 OF LIFE, RESPECTIVELY (STUDY DUR, Tumor Site: Type of Lesion: LUNG: TUMOR) “active; positive”; (Species: MOUSE, Strain/Sex: ICR/FEMALE, Route: INTRAPERITONEAL, Dose: 0;25 NMOL TOTAL DOSE INJECTED IN DOSES OF 1/7 ON DAY 1, 2.7 ON DAY 8, AND 4/7 ON DAY 15 OF LIFE (STUDY DURATION: 35 WK), Tumor Site: Type of Lesion: LUNG: TUMOR) “active; positive”; (Species: MOUSE, Strain/Sex: ICR/MALE, Route: INTRAPERITONEAL, Dose: 0, 25 NMOL TOTAL DOSE INJECTED IN DOSES OF 1/7 ON DAY 1, 2/7 ON DAY 8, AND 4/7 ON DAY 15 OF LIFE (STUDY DURATION: 35 WK), Tumor Site: Type of Lesion: LUNG:TUMOR) “active; positive”; (Species: MOUSE, Strain/Sex: ICR/MALE, Route: INTRAPERITONEAL, Dose: 0, 25 NMOL (TOTAL DOSE) ADMINISTERED IN DOSES OF 1/7, 2/7, AND 4/7 ON DAYS 1, 7, AND 15 OF LIFE, RESPECTIVELY (STUDY DUR, Tumor Site: Type of Lesion: LUNG: TUMOR) “active; positive”; (Species: RAT, Strain/Sex: STRAIN-CD/FEMALE, Route: INJECTION, Dose: 0, 2.04 UMOL IN 0.1 ML DMSO 3 INJECTIONS INTO MAMMARY TISSUE BENEATH THE 3 LEFT THORACIC NIPPLES ON THE NEXT DAY PROCEDU, Tumor Site: Type of Lesion: MAMMARY GLAND: TUMOR) “active; positive”; (Species: RAT, Strain/Sex: STRAIN-CD/FEMALE, Route: INJECTION, Dose: 0, 2.04 UMOL IN 0.1 ML DMSO INJECTED BENEATH EACH THE THREE LEFT THORACIC NIPPLES THEN ON THE NEXT DAY BENEATH EACH OF T, Tumor Site: Type of Lesion: MAMMARY GLAND: TUMOR) “active; positive”.
For the compound `CC1(C)O[C@@H]2C[C@H]3[C@@H]4CCC5=CC(=O)C=C[C@]5(C)[C@@]4(F)[C@@H](O)C[C@]3(C)[C@]2(C(=O)CO)O1`, under “Species: RAT, Strain/Sex: SPRAGUE-DAWLEY/MALE, Route: ORAL, Dose: 0, 1.5 UG/ML IN DRINKING WATER FOR AN AVERAGE DAILY DOSE OF 12.7 UG/KG DURING WK10-20 THEN 4.8 UG/KG DURING WK 21-104 (S, Tumor Site: Type of Lesion: LIVER: HEPATOCELLULAR ADENOMA OR CARCINOMA”, the carcinogen call is “active; positive”.
`Cc1cc(O)c2c(c1O)C(=O)C13C(=C2O)C(=O)C2C(O)C1C1C(O)C3C(=O)C3=C(O)c4c(O)cc(C)c(O)c4C(=O)C321` (stereo not drawn): the carcinogen call (Species: MOUSE, Route: ORAL, Tumor Site: Type of Lesion: LIVER) was “active; positive”.
